The compounds below were run against T1, Human ATX protein (Homo sapiens, UniProt Q13822) (assay: ATX biochemical FRET assay with FS-3 substrate). Conditions: FS-3 2 μM, ATX 1.0 μg/mL, binned table, read-out: IC50 (μm).
T1 construct: made in house
Source text: ATX (Autotaxin) is a 125 KDa glycoprotein with lysophospholipase D (LPLD) activity that generates the bioactive lipid lysophosphatidic acid (LPA) from lysophosphatidylcholine (LPC). The ATX biochemical assay utilizes a FRET (fluorescence resonance energy transfer) technology platform. The fluorescence signal of FRET substrate FS-3 is quenched due to intra-molecular FRET of a fluorophore to a non-fluorescing quencher (Ferguson, C. G., et al., Org. Lett. 2006 May 11; 8(10): 2023-2026, which is incorporated by reference in its entirety). ATX catalyzes the hydrolysis of the substrate which separates the dabsyl quencher from the fluorescein reporter, which becomes fluorescent. The reaction is monitored by a SpectraMax M5 (Molecular Devices, Sunnyvale, Calif.) with at excitation wavelength 485 nm and emission wavelength 535 nm.
2×ATX assay buffer: 100 mM Tris, 280 mM NaCl, 10 mM KCl, 2 mM CaCl2, 2 mM MgCl2, pH 7.4.
Human ATX protein: expressed and purified in house. Stored at −80° C.
Substrate FS-3 (Echelon, L-2000): 100 μg in 77.74 μL H2O (1 mM stock), stored at −20° C.
Compound dilution—All compounds were provided at 10 mM in 100% DMSO. In the first well, 2 μL of 10 mM compound was added to 78 μL of DMSO (1:40 dilution). In subsequent wells 3-fold dilution (total 10 dilutions) were performed.
1×ATX assay buffer was made up with a final concentration of 1 mg/mL fatty acid free-BSA using 2×ATX assay buffer, 10 mg/ml fatty acid free-BSA and ddH2O.
ATX protein was diluted with 1×ATX assay buffer to a concentration of 1.32 μg/mL (1.32×). 38 μL was added per well to the assay plate. The final concentration of ATX in the reaction as 1.0 μg/mL.
2 μL per well of compounds was transferred to provide the desired concentration. The plate was centrifuged, then incubated at room temperature for 30 minutes on the shaker.
FS-3 was diluted with 1×ATX assay buffer to a concentration of FS-3 of 10 μM (5×). Then, 10 μL was added per well to the assay plate. The final concentration of FS-3 in the reaction was 2 μM. The plate was centrifuged. The plate was kept shaking at room temperature for 2 hours. Because FS-3 substrate is light sensitive, plates were kept covered and protected from light.
Fluorescence was measured using SpectraMax M5 (excitation at 485 nm/emission at 538 nm, top read).
For C[C@H]1CC[C@@H](Oc2ccc3c(CN4CCC(C(=O)O)CC4)cccc3c2C(F)(F)F)CC1 [Example 1, 1-((6-((cis-4-methylcyclohexyl)oxy)-5-(trifluoromethyl)naphthalen-1-yl)methyl)piperidine-4-carboxylic acid], the IC50 was 500 to 5000 nM.
With C[C@H]1CC[C@@H](Oc2ccc3c(CN4C5CCC4CC(C(=O)O)C5)cccc3c2C(F)(F)F)CC1 (stereo partly drawn) [Example 2, 8-((6-((cis-4-methylcyclohexyl)oxy)-5-(trifluoromethyl)naphthalen-1-yl)methyl)-8-azabicyclo[3.2.1]octane-3-carboxylic acid] the IC50 was 500 to 5000 nM.
For C[C@H]1CC[C@@H](Oc2ccc3c(CN4C5CCCC4CC(C(=O)O)C5)cccc3c2C(F)(F)F)CC1 (stereo partly drawn) [Example 3, 9-((6-((cis-4-methylcyclohexyl)oxy)-5-(trifluoromethyl)naphthalen-1-yl)methyl)-9-azabicyclo[3.3.1]nonane-3-carboxylic acid], the IC50 was 500 to 5000 nM.
In the case of C[C@H]1CC[C@@H](Oc2ccc3c(CN4CCC[C@H](CC(=O)O)C4)cccc3c2C(F)(F)F)CC1 [Example 4, 2-((R)-1-((6-((cis-4-methylcyclohexyl)oxy)-5-(trifluoromethyl)naphthalen-1-yl)methyl)piperidin-3-yl)acetic acid], the IC50 is reported as < 500 nM.
C[C@H]1CC[C@@H](Oc2ccc3c(CNC4(C(=O)O)CCCCC4)cccc3c2C(F)(F)F)CC1 [Example 5, 1-(((6-((cis-4-methylcyclohexyl)oxy)-5-(trifluoromethyl)naphthalen-1-yl)methyl)amino)cyclohexanecarboxylic acid] was tested, and the IC50 was > 5000 nM.
Work on C[C@H]1CC[C@@H](Oc2ccc3c(CNCC(=O)O)cccc3c2C(F)(F)F)CC1 [Example 6, 2-(((6-((cis-4-methylcyclohexyl)oxy)-5-(trifluoromethyl)naphthalen-1-yl)methyl)amino)acetic acid] yielded an IC50 of 500 to 5000 nM.
C[C@H]1CC[C@@H](Oc2ccc3c(CNCCC(=O)O)cccc3c2C(F)(F)F)CC1 [Example 7, 3-(((6-((cis-4-methylcyclohexyl)oxy)-5-(trifluoromethyl)naphthalen-1-yl)methyl)amino)propanoic acid] was tested, and the IC50 was < 500 nM.
In the case of C[C@H]1CC[C@@H](Oc2ccc3c(CNCCCC(=O)O)cccc3c2C(F)(F)F)CC1 [Example 8, 4-(((6-((cis-4-methylcyclohexyl)oxy)-5-(trifluoromethyl)naphthalen-1-yl)methyl)amino)butanoic acid], the IC50 is reported as < 500 nM.
C[C@H]1CC[C@@H](Oc2ccc3c(CNCCCCC(=O)O)cccc3c2C(F)(F)F)CC1 [Example 9, 5-(((6-((cis-4-methylcyclohexyl)oxy)-5-(trifluoromethyl)naphthalen-1-yl)methyl)amino)pentanoic acid] was tested, and the IC50 was 500 to 5000 nM.
With C[C@H]1CC[C@@H](Oc2ccc3c(CNCCCCCC(=O)O)cccc3c2C(F)(F)F)CC1 [Example 10, 6-(((6-((cis-4-methylcyclohexyl)oxy)-5-(trifluoromethyl)naphthalen-1-yl)methyl)amino)hexanoic acid] the IC50 was < 500 nM.
Compound O=C(O)C1CCN(Cc2cccc3c(C(F)(F)F)c(O[C@H]4CC[C@@H](C(F)(F)F)CC4)ccc23)CC1 [Example 11, 1-((5-(trifluoromethyl)-6-((cis-4-(trifluoromethyl)cyclohexyl)oxy)naphthalen-1-yl)methyl)piperidine-4-carboxylic acid] has an IC50 of 500 to 5000 nM.
O=C(O)C1CC2CCCC(C1)N2Cc1cccc2c(C(F)(F)F)c(O[C@H]3CC[C@@H](C(F)(F)F)CC3)ccc12 (stereo partly drawn) [Example 13, 9-((5-(trifluoromethyl)-6-((cis-4-(trifluoromethyl)cyclohexyl)oxy)naphthalen-1-yl)methyl)-9-azabicyclo[3.3.1]nonane-3-carboxylic acid] showed an IC50 of 500 to 5000 nM.
In the case of O=C(O)C[C@H]1CCCN(Cc2cccc3c(C(F)(F)F)c(O[C@H]4CC[C@@H](C(F)(F)F)CC4)ccc23)C1 [Example 14, 2-((R)-1-((5-(trifluoromethyl)-6-((cis-4-(trifluoromethyl)cyclohexyl)oxy)naphthalen-1-yl)methyl)piperidin-3-yl)acetic acid], the IC50 is reported as < 500 nM.
For O=C(O)C1(NCc2cccc3c(C(F)(F)F)c(O[C@H]4CC[C@@H](C(F)(F)F)CC4)ccc23)CCCCC1 [Example 15, 1-(((5-(trifluoromethyl)-6-((cis-4-(trifluoromethyl)cyclohexyl)oxy)naphthalen-1-yl)methyl)amino)cyclohexanecarboxylic acid], the IC50 was > 5000 nM.
For O=C(O)CNCc1cccc2c(C(F)(F)F)c(O[C@H]3CC[C@@H](C(F)(F)F)CC3)ccc12 [Example 16, 2-(((5-(trifluoromethyl)-6-((cis-4-(trifluoromethyl)cyclohexyl)oxy)naphthalen-1-yl)methyl)amino)acetic acid], the IC50 was 500 to 5000 nM.
For O=C(O)CCNCc1cccc2c(C(F)(F)F)c(O[C@H]3CC[C@@H](C(F)(F)F)CC3)ccc12 [Example 17, 3-(((5-(trifluoromethyl)-6-((cis-4-(trifluoromethyl)cyclohexyl)oxy)naphthalen-1-yl)methyl)amino)propanoic acid], the IC50 was 500 to 5000 nM.
In the case of O=C(O)CCCNCc1cccc2c(C(F)(F)F)c(O[C@H]3CC[C@@H](C(F)(F)F)CC3)ccc12 [Example 18, 4-(((5-(trifluoromethyl)-6-((cis-4-(trifluoromethyl)cyclohexyl)oxy)naphthalen-1-yl)methyl)amino)butanoic acid], the IC50 is reported as < 500 nM.
For O=C(O)CCCCNCc1cccc2c(C(F)(F)F)c(O[C@H]3CC[C@@H](C(F)(F)F)CC3)ccc12 [Example 19, 5-(((5-(trifluoromethyl)-6-((cis-4-(trifluoromethyl)cyclohexyl)oxy)naphthalen-1-yl)methyl)amino)pentanoic acid], the IC50 was 500 to 5000 nM.
For O=C(O)CCCCCNCc1cccc2c(C(F)(F)F)c(O[C@H]3CC[C@@H](C(F)(F)F)CC3)ccc12 [Example 20, 6-(((5-(trifluoromethyl)-6-((cis-4-(trifluoromethyl)cyclohexyl)oxy)naphthalen-1-yl)methyl)amino)hexanoic acid], the IC50 was < 500 nM.
Work on C[C@H]1CC[C@@H](Oc2ccc3cccc(CN4CCC(C(=O)O)CC4)c3c2C(F)(F)F)CC1 [Example 21, 1-((7-((cis-4-methylcyclohexyl)oxy)-8-(trifluoromethyl)naphthalen-1-yl)methyl)piperidine-4-carboxylic acid] yielded an IC50 of 500 to 5000 nM.
With C[C@H]1CC[C@@H](Oc2ccc3cccc(CN4C5CCC4CC(C(=O)O)C5)c3c2C(F)(F)F)CC1 (stereo partly drawn) [Example 22, 8-((7-((cis-4-methylcyclohexyl)oxy)-8-(trifluoromethyl)naphthalen-1-yl)methyl)-8-azabicyclo[3.2.1]octane-3-carboxylic acid] the IC50 was < 500 nM.
In the case of C[C@H]1CC[C@@H](Oc2ccc3cccc(CN4C5CCCC4CC(C(=O)O)C5)c3c2C(F)(F)F)CC1 (stereo partly drawn) [Example 23, 9-((7-((cis-4-methylcyclohexyl)oxy)-8-(trifluoromethyl)naphthalen-1-yl)methyl)-9-azabicyclo[3.3.1]nonane-3-carboxylic acid], the IC50 is reported as 500 to 5000 nM.
In the case of C[C@H]1CC[C@@H](Oc2ccc3cccc(CN4CCC[C@H](CC(=O)O)C4)c3c2C(F)(F)F)CC1 [Example 24, 2-((R)-1-((7-((cis-4-methylcyclohexyl)oxy)-8-(trifluoromethyl)naphthalen-1-yl)methyl)piperidin-3-yl)acetic acid], the IC50 is reported as 500 to 5000 nM.
O=C(O)C1CCN(Cc2cccc3ccc(O[C@H]4CC[C@@H](C(F)(F)F)CC4)c(C(F)(F)F)c23)CC1 [Example 25, 1-((8-(trifluoromethyl)-7-((cis-4-(trifluoromethyl)cyclohexyl)oxy)naphthalen-1-yl)methyl)piperidine-4-carboxylic acid] gave an IC50 of 500 to 5000 nM.
O=C(O)C1CC2CCC(C1)N2Cc1cccc2ccc(O[C@H]3CC[C@@H](C(F)(F)F)CC3)c(C(F)(F)F)c12 (stereo partly drawn) [Example 26, 8-((8-(trifluoromethyl)-7-((cis-4-(trifluoromethyl)cyclohexyl)oxy)naphthalen-1-yl)methyl)-8-azabicyclo[3.2.1]octane-3-carboxylic acid] gave an IC50 of 500 to 5000 nM.
Work on O=C(O)C1CC2CCCC(C1)N2Cc1cccc2ccc(O[C@H]3CC[C@@H](C(F)(F)F)CC3)c(C(F)(F)F)c12 (stereo partly drawn) [Example 27, 9-((8-(trifluoromethyl)-7-((cis-4-(trifluoromethyl)cyclohexyl)oxy)naphthalen-1-yl)methyl)-9-azabicyclo[3.3.1]nonane-3-carboxylic acid] yielded an IC50 of 500 to 5000 nM.

Same assay, conditions: FS-3 2 μM, ATX 1.0 μg/mL, read-out: ATX IC50
In the case of C[C@H]1CC[C@@H](Oc2ccc3c(CN4CCC[C@H](CC(=O)O)C4)cccc3c2C(F)(F)F)CC1 [Example 4, 2-((R)-1-((6-((cis-4-methylcyclohexyl)oxy)-5-(trifluoromethyl)naphthalen-1-yl)methyl)piperidin-3-yl)acetic acid], the IC50 is reported as ≤ 250 nM.
For C[C@H]1CC[C@@H](Oc2ccc3c(CNCCCCCC(=O)O)cccc3c2C(F)(F)F)CC1 [Example 10, 6-(((6-((cis-4-methylcyclohexyl)oxy)-5-(trifluoromethyl)naphthalen-1-yl)methyl)amino)hexanoic acid], the IC50 was ≤ 250 nM.
With O=C(O)C[C@H]1CCCN(Cc2cccc3c(C(F)(F)F)c(O[C@H]4CC[C@@H](C(F)(F)F)CC4)ccc23)C1 [Example 14, 2-((R)-1-((5-(trifluoromethyl)-6-((cis-4-(trifluoromethyl)cyclohexyl)oxy)naphthalen-1-yl)methyl)piperidin-3-yl)acetic acid] the IC50 was ≤ 250 nM.
In the case of O=C(O)CCCCCNCc1cccc2c(C(F)(F)F)c(O[C@H]3CC[C@@H](C(F)(F)F)CC3)ccc12 [Example 20, 6-(((5-(trifluoromethyl)-6-((cis-4-(trifluoromethyl)cyclohexyl)oxy)naphthalen-1-yl)methyl)amino)hexanoic acid], the IC50 is reported as ≤ 250 nM.
C[C@H]1CC[C@@H](Oc2ccc3cccc(CN4C5CCC4CC(C(=O)O)C5)c3c2C(F)(F)F)CC1 (stereo partly drawn) [Example 22, 8-((7-((cis-4-methylcyclohexyl)oxy)-8-(trifluoromethyl)naphthalen-1-yl)methyl)-8-azabicyclo[3.2.1]octane-3-carboxylic acid] was tested, and the IC50 was ≤ 250 nM.
